Legend:
[1] = refrigerator: 2 to 8° C.; cited from earlier work
Solubility in water = format: physicochemical

## Nc1nc2c(c(=O)[nH]1)N(C=O)C(CNc1ccc(C(=O)N[C@@H](CCC(=O)O)C(=O)O)cc1)CN2 (single isomer, unassigned) [leucovorin]
[1]
  true solubility of leucovorin (calculated as folinic acid): 3 mg per ml

## Nc1nc2c(c(=O)[nH]1)N(C=O)C(CNc1ccc(C(=O)NC(CCC(=O)[O-])C(=O)[O-])cc1)CN2.[Zn+2] (centres unmarked) [leucovorin zinc]
Solubility in water
  solubility in water: almost insoluble in water

Source: patent US9642853B2, “Stable pharmaceutical composition containing folates” (APROFOL AG, priority 2013, dated 2017)
